Earlier results as cited in patent US8442776B2, “Structure of compstatin-C3 complex and use for rational drug design” (The Trustees of the University of Pennsylvania, priority 2007, dated 2013).

What was measured:
[1] = system: complement system (C3 activation); settings: read-out: inhibitory activity IC50

## CC[C@H](C)[C@H](N)C(=O)N[C@H]1CSSC[C@@H](C(=O)N[C@H](C(N)=O)[C@@H](C)O)NC(=O)[C@H](CCCN=C(N)N)NC(=O)[C@H](Cc2cnc[nH]2)NC(=O)[C@H](Cc2cnc[nH]2)NC(=O)CNC(=O)[C@H](Cc2c[nH]c3ccccc23)NC(=O)[C@H](CC(=O)O)NC(=O)[C@H](CCC(N)=O)NC(=O)[C@H](C(C)C)NC(=O)[C@H](C(C)C)NC1=O [Compstatin]
Primate C3
  binding to primate C3: binds only to primate C3
[1]
  IC50: 12 µM
